Assay results reported in patent publication US20110178105A1, “CLINICAL BENEFITS OF EICOSAPENTAENOIC ACID IN HUMANS” (E.I. DU PONT DE NEMOURS AND COMPANY, priority 2010, published 2011).

Assays:
[1] = doses of approximately 1200 mg/day; cited from earlier work
[2] = rat; DHA TG supplementation; cited from earlier work
[3] = Clinical study in healthy subjects: body weight, BMI, blood pressure, pulse; type: in vivo, human; settings: 6 weeks
Description: The goal of this study was to test the safety and efficacy of an EPA-enriched oil (as described in Examples 1-3; E.I. duPont de Nemours & Co., Inc. Applied Biosciences, Wilmington, Del.), to corroborate the safety of a novel oil rich in EPA in humans prior to this product being placed on the market as a dietary supplement. This oil was tested at doses of 600 mg and 1800 mg of EPA/day as compared […] parallel arm design in approximately 120 healthy adults studied in both the fasting and post-prandial state. Safety was monitored by assessing for adverse reactions, measuring vital signs and a variety of laboratory tests including a complete metabolic profile, thyroid function tests, complete blood count, and prothrombin time.
The objective was to carry out a double blinded, randomized, placebo-controlled trial in 120 healthy subjects between 20-70 years of age over a 6 week period comparing the effects of an EPA-enriched oil provided at daily […] Specific parameters investigated included changes in body weight, heart rate, blood pressure, complete blood count, comprehensive metabolic profile, lipid and lipoprotein measures in the fasted and fed state, fatty acid profiles, and inflammation markers.
At all visits the following information was recorded: weight in pounds and kilograms, height in centimeters [“cm”] and inches, waist circumference in cm and inches, resting heart rate, systolic blood pressure, diastolic blood pressure, and a brief dietary assessment to assure continued lack of high fish intake and/or flax seed or fish oil dietary supplements. Blood pressure and pulse measurements were done 3 times on each visit after the subjects had been sitting quietly for 5 minutes.
At the time of the enrollment visit all subjects were randomly allocated into a protocol where they were required to take two capsules three times daily which contained a either: 1) olive oil placebo; 2) 600 mg/day of EPA/day; 3) 1800 mg of EPA/day; and, […]). The EPA oils are notable for their low levels of saturated fatty acids, particularly with regard to the DHA oil. Specifically, the composition of the DHA oil was as follows (g fatty acid per 100 g of oil): 14.1 g myristic acid (14:0), 10.8 g palmitic acid (16:0), 2 g palmitoleic acid (16.1), 7.4 g margaric acid (17:0), 8.4 g oleic acid (18:1), 0.1 g EPA (20:5n3), 0.9 g DPA (22:5n6) and 37.9 g DHA (22:6n3).
At visit 2, subjects were again asked to fast for 12 hours, and information about subject characteristics including all vital signs, recent illness or hospitalization, medication and supplement use, and diet information was again obtained. […] At one week and three weeks after beginning the supplements, all study subjects were contacted by telephone and asked about any adverse effects and about their compliance, and the information on their calendars with regard to capsule use and fish intake. They were also asked about whether they had experienced any fishy aftertaste or odor, and if so, how frequent were these episodes, and how unpleasant were they? The entire process as listed above was repeated after study subjects were on the study capsules for 6 weeks at the time of the final visit. Compliance and adverse events were assessed by telephone at weeks 1 and 3 by telephone and at week 6 by questionnaire and capsule count. Over 42 days, subjects were expected to have consumed a total of 252 capsules. Compliance was calculated as a percentage of consumed capsule count/expected capsule count based on the number of days the subject was in the study. All subjects were asked to stay on their capsules until they come in for their final visit. Compliance in all participants who completed the study was based on capsule count was in excess of 85%, mean 96%.
Statistical analyses compared mean absolute and percentage changes from baseline and 6 weeks in the active groups versus the placebo group. Analysis of variance, as well as paired t-test analysis were performed with SYSTAT software. […]

CCC=CCC=CCC=CCC=CCC=CC/C=C\CCC(=O)O [DHA, cis-4,7, 10, 13, 16, 19-docosahexaenoic acid, reference compound]
lowering of triglyceride levels [1]: about 25%
plasma and erythrocyte DHA content, DHA TG versus DHA EE [2]: higher

CCC=CCC=CCC=CCC=CC/C=C\CCCC(=O)O [EPA, cis-5,8, 11, 14, 17-eicosapentaenoic acid]
BMI, 6-Week Change (%) ([3]; EPA 600 mg (n = 27)): +0.2 ± 2.3%
BMI, Final ([3]; EPA 600 mg (n = 27)): 27.4 ± 3.1 kg/m^2
Diastolic BP, Final ([3]; EPA 600 mg (n = 27)): 80.0 ± 7.9 mm
Pulse, 6-Week Change (%) ([3]; EPA 600 mg (n = 27)): +2.1 ± 13.6%
Pulse, Final ([3]; EPA 600 mg (n = 27)): 74.7 ± 12.0 beats/min
Systolic BP, 6-Week Change (%) ([3]; EPA 600 mg (n = 27)): +3.0 ± 10.4%
Systolic BP, Final ([3]; EPA 600 mg (n = 27)): 121.1 ± 12.2 mm Hg
Weight, 6-Week Change (%) ([3]; EPA 600 mg (n = 27)): +0.2 ± 2.1%
Weight, Final ([3]; EPA 600 mg (n = 27)): 80.4 ± 10.9 kg
BMI, 6-Week Change (%) ([3]; EPA 1800 mg (n = 29)): +1.1 ± 5.1%
BMI, Final ([3]; EPA 1800 mg (n = 29)): 27.9 ± 5. kg/m2
Diastolic BP, 6-Week Change (%) ([3]; EPA 1800 mg (n = 29)): +1.4 ± 9.1%
Diastolic BP, Final ([3]; EPA 1800 mg (n = 29)): 77.4 ± 9.0 mm
Pulse, 6-Week Change (%) ([3]; EPA 1800 mg (n = 29)): +2.7 ± 8.6%
Pulse, Final ([3]; EPA 1800 mg (n = 29)): 70.9 ± 8.5 beats/min
Systolic BP, 6-Week Change (%) ([3]; EPA 1800 mg (n = 29)): +1.0 ± 7.4%
Systolic BP, Final ([3]; EPA 1800 mg (n = 29)): 119.9 ± 13.4 mm Hg
Weight, 6-Week Change (%) ([3]; EPA 1800 mg (n = 29)): +1.3 ± 4.6%
Weight, Final ([3]; EPA 1800 mg (n = 29)): 81.6 ± 19.2 kg
